By Km is commonly meant the substrate concentration at which the rate is half of its maximum.

Consider two compounds from paper PMC7948467, “Discovery of an ultraspecific triuret hydrolase (TrtA) establishes the triuret biodegradation pathway” (The Journal of Biological Chemistry, 2020).

Experiment [1] has as its target T1, TrtA (Herbaspirillum sp. BH-1, UniProt A0A2N6JFX7).
T1 construct: N-terminal 6xHis tag and thrombin site kept, pET28a, E. coli BL21(DE3), codon-optimized; subunit 24 kDa, homodimer
T1 sequence (A0A2N6JFX7 1-227): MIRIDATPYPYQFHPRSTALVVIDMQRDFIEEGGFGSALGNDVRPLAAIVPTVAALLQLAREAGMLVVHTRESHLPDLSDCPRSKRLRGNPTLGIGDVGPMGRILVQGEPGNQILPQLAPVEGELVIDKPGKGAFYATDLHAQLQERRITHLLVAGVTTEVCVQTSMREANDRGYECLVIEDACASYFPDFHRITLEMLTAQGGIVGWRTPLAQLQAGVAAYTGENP
Put plainly: inhibition of triuret hydrolysis. The experiment is classed as biochemical. As to conditions: likely competitive; Ki not determinable because biuret contains about 1 mol% triuret; inhibition only above 50 mM, where TrtA precipitates; tag state not stated.

For experiment [2], the target named is T2, RhdBiuH (Rhodococcus sp. Mel, UniProt H8ZKV9, C169S).
T2 construct: recombinant
The experiment in a line: X-ray crystal structure. As to conditions: cocrystal with biuret; active site; inactive mutant. The experiment is classed as binding.

Experiment [3] addresses T3, CtermDelΔ7+Cleaved His-tag (Herbaspirillum sp. BH-1, UniProt A0A2N6JFX7).
T3 construct: gene trtA
The experiment in a line: ammonia release, Berthelot assay. The conditions noted are these: phosphate buffer, pH 8, 25 °C. Type of experiment: biochemical. An excerpt: ammonia release, Berthelot assay on CtermDelΔ7+Cleaved His-tag

T2 sequence (H8ZKV9 entry or part of it C169S): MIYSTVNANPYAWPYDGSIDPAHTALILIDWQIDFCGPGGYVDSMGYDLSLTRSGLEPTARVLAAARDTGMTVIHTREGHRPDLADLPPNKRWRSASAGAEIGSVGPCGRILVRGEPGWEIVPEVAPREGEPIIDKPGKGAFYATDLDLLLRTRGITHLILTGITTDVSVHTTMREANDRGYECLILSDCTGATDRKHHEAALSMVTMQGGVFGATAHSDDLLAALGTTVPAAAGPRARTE

Take `NC(=O)NC(N)=O` [biuret]: the “inhibition of triuret hydrolysis” value in experiment [1] is given as “Inhibition data suggests that biuret is a competitive inhibitor”. In addition, the X-ray crystal structure result in experiment [2] is listed as “The cocrystal with biuret showed similar mode of binding to that of BiuH”.

Consider `NC(=O)NC(=O)NC(N)=O` [triuret], for which the Km in experiment [3] amounted to 16 ± 2 µM.
